Results on ten compounds are retold here after ChEMBL document CHEMBL4145665, “Structure-Activity Relationship of Novel and Selective Biaryl-Chroman GPR40 AgoPAMs” (ACS Med Chem Lett, 2018).

Structures are written as SMILES.

Data set [1] deals with T1, Free fatty acid receptor 1 (Homo sapiens, UniProt O14842). The data set is described as follows: Agonist activity at recombinant human GPR40 expressed in HEK293 cells assessed as increase in IP1 accumulation measured after 60 mins by HTRF assay relative to AM-1638. The data set is classed as functional, cell-based. On the technique in general: Time-resolved FRET reads energy transfer from a long-lived donor to a nearby acceptor.

Data set [2] deals with T1, Free fatty acid receptor 1. The experiment in a line: Agonist activity at recombinant human GPR40 expressed in HEK293 cells assessed as increase in IP1 accumulation measured after 60 mins in presence of 100% human serum by HTRF assay. Format: functional, cell-based.
Data set [3] relates to Rattus norvegicus. The experiment in a line: Antidiabetic activity in Sprague-Dawley rat assessed as inhibition of blood glucose AUC at 3 mg/kg, po treated prior to dextrose challenge and measured after 20 to 60 mins by IPGTT relative to control. Format: functional.
Data set [4] deals with T1, Free fatty acid receptor 1. The data set is described as follows: Agonist activity at recombinant human GPR40 expressed in HEK293 cells assessed as increase in IP1 accumulation measured after 60 mins by HTRF assay. Format: functional, cell-based.
The target in data set [5] is T1, Free fatty acid receptor 1. The data set is described as follows: Agonist activity at recombinant human GPR40 expressed in HEK293 cells assessed as increase in IP1 accumulation measured after 60 mins in presence of 100% human serum by HTRF assay relative to AM-1638. The data set is classed as functional, cell-based.
Data set [6] addresses Free fatty acid receptor 1 (Rattus norvegicus) (UniProt Q8K3T4). The data set is described as follows: Agonist activity at recombinant rat GPR40 expressed in CHOK1 cells assessed as increase in IP1 accumulation measured after 60 mins by HTRF assay relative to AM-1638. Format: functional, cell-based.
Data set [7] deals with Rattus norvegicus. The experiment in a line: Antidiabetic activity in po dosed Goto Kakizaki rats assessed as plasma concentration required for reduction in blood glucose excursion at MED pretreated for 1 hr followed by dextrose challenge measured 3 hrs post dose by OGTT. The data set is classed as functional, organism-based.
The nature of data set [8]: Lipophilicity, log D of the compound at pH 7 at 100 uM by HPLC method. The following applies: buffer. Format: physicochemical.

T1 sequence (O14842 whole entry): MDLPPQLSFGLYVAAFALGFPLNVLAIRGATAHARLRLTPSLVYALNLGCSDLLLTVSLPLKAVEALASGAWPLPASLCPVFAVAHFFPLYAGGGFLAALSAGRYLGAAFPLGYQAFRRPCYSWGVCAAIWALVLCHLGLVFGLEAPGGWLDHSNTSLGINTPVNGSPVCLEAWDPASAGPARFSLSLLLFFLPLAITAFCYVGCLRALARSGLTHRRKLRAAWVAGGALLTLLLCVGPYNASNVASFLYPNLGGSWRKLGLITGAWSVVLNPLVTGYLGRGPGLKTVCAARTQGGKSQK
Sequence of Free fatty acid receptor 1 (Rattus norvegicus) (Q8K3T4 whole entry): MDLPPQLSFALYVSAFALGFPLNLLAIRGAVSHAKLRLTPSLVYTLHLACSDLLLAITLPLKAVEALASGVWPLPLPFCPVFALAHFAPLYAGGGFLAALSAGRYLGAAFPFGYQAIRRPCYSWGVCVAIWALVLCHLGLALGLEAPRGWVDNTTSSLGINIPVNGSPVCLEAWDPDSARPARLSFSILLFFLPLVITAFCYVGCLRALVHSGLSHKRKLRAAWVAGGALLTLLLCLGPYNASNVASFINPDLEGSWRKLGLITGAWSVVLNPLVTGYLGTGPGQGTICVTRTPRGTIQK

With `COc1cc(-c2ccc(C3CCc4ccc([C@H](C5CC5)[C@H](C)C(=O)O)cc4O3)c(F)c2)ccn1` (mixture of isomers), the max activation in data set [1] and in data set [5] was more than 179% throughout. In addition, the figures for the EC50 in data set [2] and in data set [4] were 920 nM and 8.2 nM, respectively. Moreover, the inhibition in vivo (in general, the relative decrease from the control value, in per cent) at 3 mg/kg with Rattus norvegicus [3] (Rattus norvegicus, Sprague-Dawley, po) was 84%.
In the case of `COc1ccc(F)c(-c2ccc(C3CCc4ccc([C@H](C5CC5)[C@H](C)C(=O)O)cc4O3)cc2)c1` (stereo in doubt; 14), the max activation in data set [6] is more than 370%; in data set [1], more than 179%; in data set [5] it was more than 179%. Moreover, in the data set on Rattus norvegicus [7], the Cp is 3 µM.
For `COc1ccc(F)c(-c2ccc(C3CCc4ccc([C@H](C5CC5)[C@H](C)C(=O)O)cc4O3)nc2)c1` (stereo in doubt; 16), the figures for the max activation in data set [6], in data set [1] and in data set [5] were more than 370%, more than 179% and more than 179%, respectively. Moreover, in the data set with Rattus norvegicus [7], the Cp turned out to be 13.9 µM.
Consider `COc1ccc(F)c(-c2ccc(C3CCc4ccc([C@H](C5CC5)[C@H](C)C(=O)O)cc4O3)cn2)c1` (stereo in doubt; 18), for which the pH-dependent lipophilicity (logD) (in general, the decadic logarithm of the distribution of all forms, ionised or not, between an organic phase and buffer at a given pH) at 100 µM in data set [8] turned out to be 2.29. Further, the figures for the half-maximal effective concentration (EC50) in data set [2] and in data set [4] were 5330 nM and 24 nM, respectively.
For the compound `COc1cc(-c2ccc(C3CCc4ccc([C@H](C5CC5)[C@H](C)C(=O)[O-])cc4O3)cc2)c(F)cn1.[Na+]` (stereo in doubt; 20), in data set [8], the logD at 100 µM amounted to 2.68. For the same compound, the figures for the EC50 in data set [2] and in data set [4] were 66 nM and 0.9 nM, respectively. For the same compound, in the data set on Rattus norvegicus [3], the “inhibition (INH)” value is recorded as 59%.
`COc1cc(-c2ccc(C3CCc4ccc([C@H](C5CC5)[C@H](C)C(=O)[O-])cc4O3)cc2)ccn1.[Na+]` (stereo in doubt; 22) displayed a logD at 100 µM in data set [8] of 2.3. Further, the EC50 (commonly the concentration at which the effect is half-maximal) in data set [2] was determined as 382 nM. Moreover, the “inhibition (INH)” value with Rattus norvegicus [3] was 49%.
The compound `COc1cc(-c2ccc(C3CCc4ccc([C@H](C5CC5)[C@H](C)C(=O)[O-])cc4O3)c(F)c2)c(F)cn1.[Na+]` (stereo in doubt; 26) returned a logD at 100 µM in data set [8] of 2.97. The EC50 in data set [2] was 36 nM; in data set [4], less than 0.2 nM. Further, the “inhibition (INH)” value in the data set with Rattus norvegicus [3] came to 72%.
The matching figures for `COc1cc(-c2ccc(C3CCc4ccc([C@H](C5CC5)[C@H](C)C(=O)[O-])cc4O3)nc2)c(F)cn1.[Na+]` (stereo in doubt; 28): 1.98, 1030 nM, less than 0.2 nM and 102%.
As for `COc1cc(-c2cnc(C3CCc4ccc([C@H](C5CC5)[C@H](C)C(=O)O)cc4O3)c(F)c2)c(F)cn1` (stereo in doubt; 30), the log distribution coefficient (logD) at 100 µM in data set [8] stood at 2.36. Also, in data set [2], the EC50 is 382 nM.
As to `COc1cc(-c2ccc(C3CCc4ccc([C@H](C5CC5)[C@H](C)C(=O)O)cc4O3)nc2)ccn1` (stereo in doubt; 32), in data set [8], the logD at 100 µM worked out at 1.74. For the same compound, in data set [2], the EC50 is 838 nM.
